According to US20160279187A1, “CALPAIN INHIBITORS FOR IBD AND COLORECTAL CANCER TREATMENT” (UNIVERSITY OF HAWAII, priority 2013, published 2016):
Where a SMILES comes first, the peptide text is derived from it. The star is where a group is joined. Cbz = O=C(OCc1ccccc1)*; CH2F = FC*

Molecular target: T1, M-Calpain activity in HT-29 cells (Homo sapiens, UniProt P17655)
T1 construct: endogenous in cells; host or cells: HT-29 human colorectal cancer cells
T1 sequence (P17655 20-700 limits assumed): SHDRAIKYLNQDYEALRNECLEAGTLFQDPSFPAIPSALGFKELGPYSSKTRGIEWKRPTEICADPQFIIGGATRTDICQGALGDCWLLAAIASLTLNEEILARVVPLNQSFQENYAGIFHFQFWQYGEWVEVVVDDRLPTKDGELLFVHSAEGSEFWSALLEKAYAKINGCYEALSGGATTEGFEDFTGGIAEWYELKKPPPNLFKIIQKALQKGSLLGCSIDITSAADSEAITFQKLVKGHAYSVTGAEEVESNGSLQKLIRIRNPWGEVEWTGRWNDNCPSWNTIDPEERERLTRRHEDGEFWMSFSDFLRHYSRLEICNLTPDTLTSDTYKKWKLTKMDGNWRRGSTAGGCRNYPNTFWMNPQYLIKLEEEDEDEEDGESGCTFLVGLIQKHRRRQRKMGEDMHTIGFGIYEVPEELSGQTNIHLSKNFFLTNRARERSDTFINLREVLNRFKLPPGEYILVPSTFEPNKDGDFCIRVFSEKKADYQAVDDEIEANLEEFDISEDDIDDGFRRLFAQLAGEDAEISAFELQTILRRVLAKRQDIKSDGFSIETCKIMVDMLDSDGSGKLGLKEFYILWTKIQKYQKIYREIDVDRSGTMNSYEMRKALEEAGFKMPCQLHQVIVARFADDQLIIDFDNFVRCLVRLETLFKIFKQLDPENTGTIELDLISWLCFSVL
T1 sequence (P04632 1-268 partner): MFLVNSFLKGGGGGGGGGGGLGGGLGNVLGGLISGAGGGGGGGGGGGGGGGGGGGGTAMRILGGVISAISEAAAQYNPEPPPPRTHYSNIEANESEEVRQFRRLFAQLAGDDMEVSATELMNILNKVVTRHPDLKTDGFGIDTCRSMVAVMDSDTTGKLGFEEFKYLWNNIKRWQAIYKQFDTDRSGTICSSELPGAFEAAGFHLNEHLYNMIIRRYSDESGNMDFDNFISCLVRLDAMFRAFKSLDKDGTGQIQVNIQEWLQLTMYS
Assay: Calpain Activity Assay Kit (BioVision), HT-29
Format: cell-based
Settings: HT-29, vs DMSO, 1 hour
Procedure: Bone marrow derived macrophages (BMDM) were prepared as previously described by methods known to those skilled in the art. On day 5 of culture, 2×10^6 BMDM were seeded in 6-well plates and the following day were primed for 18 h with TNFα (20 ng/mL), followed by 1 h stimulation with E. faecalis (1 μg/mL; ATCC). Stimulation with E. faecalis was conducted in the presence of the zLLY-CH2F calpain-2 inhibitor (20 μg/mL) or DMSO as a control. Media was removed from treated BMDM, centrifuged at 300×g for 5 min and supernatent analyzed using the Cytometric Bead Array Mouse Inflammation Kit (BD Biosciences, San Jose, Calif.). Cytokine data were analyzed using Flowjo software (Ashland, Oreg.) and GraphPad Prism version 4.0 (GraphPad, La Jolla, Calif.). Cell pellets were lysed and analyzed for IκB and NFκB by Western blot as previously described (Miyazaki, T. et al. Journal of Atherosclerosis and Thrombosis 20, 228-237, 2013). […] Each day 4 wells were quantified using Celltiter MTS reagent (Promega) and the resulting signal was used to generate a proliferation curve. Calpain activity was measured using a Calpain activity assay kit (BioVision, Inc., Milpitas, Calif.) as previously described. Colons were harvested on day 4 and calpain activity measured. […]

SMILES: CC(C)C[C@H](NC(=O)OCc1ccccc1)C(=O)N[C@@H](CC(C)C)C(=O)N[C@@H](Cc1ccc(O)cc1)C(=O)CF [zLLY-CH2F, Z-LLY-CH2F] (Cbz-Leu-Leu-Tyr-CH2F)
- M-Calpain activity: reduced
